Results reported in PubChem BioAssay (NCI).
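Where inhibition never reached the appropriate level, the endpoint shown equals the highest concentration tested. Otherwise, values were interpolated linearly from a five-concentration, 48-hour dose response in 96-well plates. Here, GI50 denotes the concentration required for 50% inhibition of growth. The concentration for full growth arrest is given as TGI.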

Columns and labels:
Experiment in all cases: DTP human tumour cell line panel, 48 h
[1] = tested on: SF-539 CNS
[2] = tested on: HL-60(TB) leukemia
[3] = tested on: HCT-116 colon
[4] = tested on: EKVX NSCLC
[5] = tested on: TK-10 renal
[6] = tested on: NCI/ADR-RES ovarian
[7] = tested on: SW-620 colon
[8] = tested on: MOLT-4 leukemia
[9] = tested on: LOX IMVI melanoma
[10] = tested on: BT-549 breast
[11] = tested on: IGROV1 ovarian
[12] = tested on: DU-145 prostate
[13] = tested on: MALME-3M melanoma
[14] = tested on: RPMI-8226 leukemia
[15] = tested on: SK-MEL-2 melanoma
[16] = tested on: SK-OV-3 ovarian
[17] = tested on: SNB-75 CNS
[18] = tested on: UO-31 renal
[19] = tested on: MCF7 breast
[20] = tested on: SF-268 CNS
[21] = tested on: HOP-92 NSCLC
[22] = tested on: MDA-MB-231 breast
[23] = tested on: NCI-H522 lung
[24] = tested on: OVCAR-3 ovarian
[25] = tested on: SF-295 CNS
[26] = tested on: HOP-62 NSCLC
[27] = tested on: M14 melanoma
[28] = tested on: T-47D breast
[29] = tested on: U251 CNS
[30] = tested on: SNB-19 CNS
[31] = tested on: A549 NSCLC
[32] = tested on: HS 578T breast
[33] = tested on: CCRF-CEM leukemia
[34] = tested on: CAKI-1 renal
[35] = tested on: ACHN renal
[36] = tested on: SK-MEL-28 melanoma
[37] = tested on: COLO 205 colon
[38] = tested on: KM12 colon
[39] = tested on: K-562 leukemia
[40] = tested on: RXF 393 renal
[41] = tested on: MDA-MB-435
[42] = tested on: HT29 colon
[43] = tested on: HCC-2998 colon
[44] = tested on: OVCAR-4 ovarian
[45] = tested on: HCT-15 colon
[46] = tested on: SR leukemia
[47] = tested on: NCI-H23 lung
[48] = tested on: OVCAR-8 ovarian
[49] = tested on: SK-MEL-5 melanoma
[50] = tested on: UACC-257 melanoma
[51] = tested on: NCI-H460 lung
[52] = tested on: NCI-H226 lung
[53] = tested on: A498 renal
[54] = tested on: OVCAR-5 ovarian
[55] = tested on: PC-3 prostate
[56] = tested on: 786-0 renal
[57] = tested on: SN12C renal
[58] = tested on: UACC-62 melanoma

For `COc1ccccc1C1C(C#N)=C(N)OC2=C1C(=O)CCC2` (stereo not given), the GI50 [1] was over 100 µM, the TGI [1] was over 100 µM and the GI50 [2] was over 100 µM. For the same molecule, the TGI [2] was over 100 µM, the GI50 [3] was over 100 µM and the TGI [3] was over 100 µM. For the same molecule, the GI50 [4] was over 100 µM, the TGI [4] was over 100 µM and the GI50 [5] was over 100 µM. The TGI [5] was over 100 µM, the GI50 [6] was over 100 µM and the TGI [6] was over 100 µM. The GI50 [7] was over 100 µM, the TGI [7] was over 100 µM and the GI50 [8] was over 100 µM. It also gave a TGI [8] of over 100 µM, a GI50 [9] of over 100 µM and a TGI [9] of over 100 µM. The GI50 [10] was over 100 µM, the TGI [10] was over 100 µM and the GI50 [11] was over 100 µM. The TGI [11] was over 100 µM, the GI50 [12] was over 100 µM and the TGI [12] was over 100 µM. For the same molecule, the GI50 [13] was over 100 µM, the TGI [13] was over 100 µM and the GI50 [14] was 5.77 µM. The TGI [14] was 44.2 µM, the GI50 [15] was over 100 µM and the TGI [15] was over 100 µM. The GI50 [16] was over 100 µM, the TGI [16] was over 100 µM and the GI50 [17] was over 100 µM. It also gave a TGI [17] of over 100 µM, a GI50 [18] of over 100 µM and a TGI [18] of over 100 µM. It also gave a GI50 [19] of over 100 µM, a TGI [19] of over 100 µM and a GI50 [20] of over 100 µM. The TGI [20] was over 100 µM, the GI50 [21] was 15.8 µM and the TGI [21] was over 100 µM. It also gave a GI50 [22] of 16.2 µM, a TGI [22] of over 100 µM and a GI50 [23] of over 100 µM. The TGI [23] was over 100 µM, the GI50 [24] was over 100 µM and the TGI [24] was over 100 µM. The GI50 [25] was over 100 µM, the TGI [25] was over 100 µM and the GI50 [26] was over 100 µM. It also gave a TGI [26] of over 100 µM, a GI50 [27] of over 100 µM and a TGI [27] of over 100 µM. It also gave a GI50 [28] of over 100 µM, a TGI [28] of over 100 µM and a GI50 [29] of over 100 µM. For the same molecule, the TGI [29] was over 100 µM, the GI50 [30] was over 100 µM and the TGI [30] was over 100 µM. It also gave a GI50 [31] of over 100 µM, a TGI [31] of over 100 µM and a GI50 [32] of over 100 µM. For the same molecule, the TGI [32] was over 100 µM, the GI50 [33] was 59.2 µM and the TGI [33] was over 100 µM. It also gave a GI50 [34] of over 100 µM, a TGI [34] of over 100 µM and a GI50 [35] of over 100 µM. The TGI [35] was over 100 µM, the GI50 [36] was over 100 µM and the TGI [36] was over 100 µM. It also gave a GI50 [37] of over 100 µM, a TGI [37] of over 100 µM and a GI50 [38] of over 100 µM. The TGI [38] was over 100 µM, the GI50 [39] was over 100 µM and the TGI [39] was over 100 µM. For the same molecule, the GI50 [40] was over 100 µM, the TGI [40] was over 100 µM and the GI50 [41] was over 100 µM. The TGI [41] was over 100 µM, the GI50 [42] was over 100 µM and the TGI [42] was over 100 µM. The GI50 [43] was over 100 µM, the TGI [43] was over 100 µM and the GI50 [44] was over 100 µM. The TGI [44] was over 100 µM, the GI50 [45] was over 100 µM and the TGI [45] was over 100 µM. It also gave a GI50 [46] of 14.2 µM, a TGI [46] of over 100 µM and a GI50 [47] of over 100 µM. It also gave a TGI [47] of over 100 µM, a GI50 [48] of over 100 µM and a TGI [48] of over 100 µM. It also gave a GI50 [49] of over 100 µM, a TGI [49] of over 100 µM and a GI50 [50] of over 100 µM. It also gave a TGI [50] of over 100 µM, a GI50 [51] of over 100 µM and a TGI [51] of over 100 µM. For the same molecule, the GI50 [52] was 74.2 µM, the TGI [52] was over 100 µM and the GI50 [53] was over 100 µM. For the same molecule, the TGI [53] was over 100 µM, the GI50 [54] was over 100 µM and the TGI [54] was over 100 µM.

`O=C(Oc1c(I)ccccc1=O)c1ccc([N+](=O)[O-])cc1` was tested, and the TGI [1] was 37.6 µM, the TGI [55] was 75.1 µM and the TGI [2] was 46.5 µM. For the same molecule, the TGI [3] was over 100 µM, the TGI [4] was 28.3 µM and the TGI [5] was over 100 µM. The TGI [6] was over 100 µM, the TGI [7] was 83.6 µM and the TGI [9] was 83.2 µM. It also gave a TGI [10] of 41.8 µM, a TGI [11] of 29.2 µM and a TGI [12] of 26.8 µM. It also gave a TGI [13] of 30.7 µM, a TGI [14] of 88 µM and a TGI [56] of over 100 µM. It also gave a TGI [15] of 45.1 µM, a TGI [18] of 68.9 µM and a TGI [19] of 35.5 µM. For the same molecule, the TGI [20] was 39.8 µM, the TGI [22] was 87.7 µM and the TGI [57] was 67.9 µM. For the same molecule, the TGI [23] was 36.7 µM, the TGI [24] was 40.1 µM and the TGI [25] was 62.1 µM. For the same molecule, the TGI [26] was over 100 µM, the TGI [27] was 73.3 µM and the TGI [28] was 1.33 µM. It also gave a TGI [29] of 57.9 µM, a TGI [30] of 46.5 µM and a TGI [31] of 63.2 µM. For the same molecule, the TGI [32] was 68.2 µM, the TGI [33] was over 100 µM and the TGI [58] was 51 µM. The TGI [34] was 55.1 µM, the TGI [35] was 68.5 µM and the TGI [36] was 21.7 µM. For the same molecule, the TGI [37] was 27.8 µM, the TGI [38] was 35.6 µM and the TGI [39] was 61.9 µM. The TGI [40] was 21.7 µM, the TGI [41] was 42.4 µM and the TGI [42] was 24.8 µM. It also gave a TGI [43] of 49.5 µM, a TGI [45] of 31.7 µM and a TGI [46] of 24.2 µM. It also gave a TGI [47] of 99.6 µM, a TGI [48] of 65.1 µM and a TGI [49] of 13.6 µM. It also gave a TGI [50] of 35.1 µM, a TGI [51] of 23.5 µM and a TGI [53] of 17 µM. For the same molecule, the TGI [54] was over 100 µM.
